Data taken from PMC9230651, “Discovery of Novel Quinazoline Derivatives as Potent Antitumor Agents” (Molecules, 2022).

How the values were obtained:
MGC-803 = experiment: MTT assay, antiproliferative activity against MGC-803; type: cell-based, human
Description: (§1) Human gastric carcinoma cell line MGC-803, human breast adenocarcinoma cell line MCF-7, human lung carcinoma cell lines (PC-9, A549, and H1975), and human immortalized gastric mucosa epithelial cell line GES-1 were purchased from the Cell Bank of Shanghai Institute of Biochemistry and Cell Biology (Shanghai, China), and all of them were cultured in RPMI-1640 and DMEM complete medium (Solarbio, Beijing, China) at 37 °C in a 5% CO2 humidified atmosphere.
(§2) Briefly, cells were incubated with different concentrations of the test compound for different hours in each experiment for 72 h, followed by adding 20 μL MTT solution to each well, which was then incubated for another 4 h. An enzyme-linked immunosorbent assay reader (BioTek, South Plainfield, VT, USA) was used to measure absorbance values at 490 nm, and SPSS20 software was used to calculate the cell viability and IC50 values.

MCF-7 = experiment: MTT assay, antiproliferative activity against MCF-7; type: cell-based, human
Description: as §1, §2

PC-9 = experiment: MTT assay, antiproliferative activity against PC-9; type: cell-based, human
Description: as §1, §2

A549 = experiment: MTT assay, antiproliferative activity against A549; type: cell-based, human
Description: as §1, §2

H1975 = experiment: MTT assay, antiproliferative activity against H1975; type: cell-based, human
Description: as §1, §2

GES-1 = experiment: MTT assay, toxicity toward normal gastric epithelial cell line GES-1; type: cell-based, human; conditions: MTT, 72 h
Description: as §1, §2

[1] = test system: xenograft model carrying MGC-803 cells; experiment: In vivo anti-tumor activity, gastric cancer xenograft model; parameters: species or system mice; conditions: 10 mg/kg intravenous every three days
Description: Male mice (23–25 g, aged 5–6 weeks) were obtained from Beijing Vital River Laboratory Animal Technology Co., Ltd. (Beijing, China). All animal treatments were performed under the guidelines of the National Institutes of Health Guide for the Care and Use of Laboratory Animals using an approved animal protocol by the Zhengzhou University Committee on Animal Care (2020CHEM-ZZU-086). 1.0 × 10^7 MGC-803 cells were implanted in the right flank of mice subcutaneously. After 16 days, the tumor volume reached 100 mm^3, followed by being randomly divided into three groups (n = 7): solvent group, 5-Fu (10 mg/kg) group, and compound 18 (25 mg/kg) group. An intravenous injection of 5-Fu (10 mg/kg) was administered into the corresponding mice group every three days, while the mice in compound 18 group received intragastric administration of 25 mg/kg compound 18 per day for 21 days. Tumor diameter and body weight were measured every two days, followed by the euthanization of the mice after 34 days, after which tumor weights were.

| SMILES | IC50 (MGC-803; Homo sapiens, MGC-803, 72 h) [µM] | IC50 (MCF-7; Homo sapiens, MCF7, 72 h) [µM] | IC50 (PC-9; Homo sapiens, PC-9, 72 h) [µM] | IC50 (A549; Homo sapiens, A549, 72 h) [µM] | IC50 (H1975; Homo sapiens, NCI-H1975, 72 h) [µM] | IC50 (GES-1; Homo sapiens, GES1) [µM] | melting point [°C] | IC50 (MGC-803; 72 h) [µM] | IC50 (MCF-7; 72 h) [µM] | IC50 (PC-9; 72 h) [µM] | IC50 (A549; 72 h) [µM] | IC50 (H1975; 72 h) [µM] | IC50 (GES-1) [µM] | average tumor volume [1] | body weight [1] | tumor weight [1] |
| --- | --- | --- | --- | --- | --- | --- | --- | --- | --- | --- | --- | --- | --- | --- | --- | --- |
| COc1cc(Nc2nc(-c3ccccc3)nc3ccccc23)cc(OC)c1OC [compound 14, 2-Phenyl-N-(3,4,5-trimethoxyphenyl)quinazolin-4-amine] | 2.12 ± 0.97 | 3.21 ± 2.28 | 5.35 ± 1.82 | 8.72 ± 1.53 | 13.2 ± 1.86 | 19.6 ± 2.58 | – | – | – | – | – | – | – | – | – | – |
| Brc1ccc(Nc2nc(-c3ccccc3)nc3ccccc23)cc1 [compound 9, N-(4-Bromophenyl)-2-phenylquinazolin-4-amine] | 1.89 ± 0.59 | 5.15 ± 1.16 | 4.31 ± 0.96 | 4.75 ± 1.36 | 6.65 ± 1.57 | 18.6 ± 1.72 | 187 to 193 | – | – | – | – | – | – | – | – | – |
| Clc1ccc(Nc2nc(-c3ccccc3)nc3ccccc23)cc1 [compound 8, N-(4-Chlorophenyl)-2-phenylquinazolin-4-amine] | 3.57 ± 0.89 | 6.96 ± 1.57 | 8.75 ± 1.59 | 6.58 ± 1.31 | 10.6 ± 2.46 | > 30 | – | – | – | – | – | – | – | – | – | – |
| O=C(/C=C/c1ccc(Cl)cc1)c1ccc(Nc2nc(-c3ccccc3)nc3ccccc23)cc1 [compound 17, (E)-3-(4-Chlorophenyl)-1-(4-((2-phenylquinazolin-4-yl)amino)phenyl)prop-2-en-1-one] | 1.39 ± 0.26 | 2.37 ± 0.35 | 1.89 ± 0.67 | 1.46 ± 0.16 | 4.75 ± 0.81 | 23.4 ± 2.83 | 263 to 267 | – | – | – | – | – | – | – | – | – |
| COc1ccc(Nc2nc(-c3ccccc3)nc3ccccc23)cc1 [compound 13, N-(4-Methoxyphenyl)-2-phenylquinazolin-4-amine] | 4.98 ± 1.26 | 8.36 ± 1.92 | 6.83 ± 1.29 | 5.69 ± 1.68 | > 30 | 21.3 ± 2.79 | – | – | – | – | – | – | – | – | – | – |
| Fc1ccc(Nc2nc(-c3ccccc3)nc3ccccc23)cc1 [compound 7, N-(4-Fluorophenyl)-2-phenylquinazolin-4-amine] | 4.15 ± 1.16 | 8.75 ± 1.76 | 10.6 ± 2.16 | 4.82 ± 0.99 | 12.6 ± 2.89 | 20.8 ± 3.29 | – | – | – | – | – | – | – | – | – | – |
| c1ccc(-c2nc(Nc3cccc4ccccc34)c3ccccc3n2)cc1 [compound 15, N-(Naphthalen-1-yl)-2-phenylquinazolin-4-amine] | 18.9 ± 2.82 | > 30 | 15.4 ± 1.92 | 12.2 ± 1.59 | 10.4 ± 1.88 | > 30 | 204 to 208 | – | – | – | – | – | – | – | – | – |
| c1ccc(Nc2nc(-c3ccccc3)nc3ccccc23)cc1 [compound 6, N,2-Diphenylquinazolin-4-amine] | 6.23 ± 0.12 | 12.6 ± 0.16 | 15.8 ± 0.52 | 10.3 ± 0.98 | 20.1 ± 1.62 | > 30 | – | – | – | – | – | – | – | – | – | – |
| O=C(/C=C/c1ccc(F)cc1)c1ccc(Nc2nc(-c3ccccc3)nc3ccccc23)cc1 [compound 16, (E)-3-(4-Fluorophenyl)-1-(4-((2-phenylquinazolin-4-yl)amino)phenyl)prop-2-en-1-one] | 2.02 ± 0.38 | 3.96 ± 0.92 | 2.75 ± 0.66 | 1.98 ± 0.26 | 3.67 ± 0.93 | 18.8 ± 1.56 | 252 to 256 | – | – | – | – | – | – | – | – | – |
| FC(F)(F)c1ccc(Nc2nc(-c3ccccc3)nc3ccccc23)cc1 [compound 11, 2-Phenyl-N-(4-(trifluoromethyl)phenyl)quinazolin-4-amine] | 11 ± 1.93 | 15.7 ± 1.82 | 20.8 ± 2.16 | 25.4 ± 3.11 | 22.9 ± 2.69 | 25.4 ± 3.51 | 190 to 195 | – | – | – | – | – | – | – | – | – |
| Cc1ccc(Nc2nc(-c3ccccc3)nc3ccccc23)cc1 [compound 12, 2-Phenyl-N-(p-tolyl)quinazolin-4-amine] | 5.81 ± 2.41 | 10.6 ± 1.67 | 15.3 ± 1.53 | 8.56 ± 1.72 | 19.4 ± 2.38 | 24.3 ± 1.96 | – | – | – | – | – | – | – | – | – | – |
| O=c1[nH]cc(F)c(=O)[nH]1 [5-Fu, reference compound] | – | – | – | – | – | – | – | 4.11 ± 0.72 | 4.51 ± 1.23 | 3.68 ± 1.06 | 5.12 ± 1.73 | 2.68 ± 0.86 | 3.26 ± 1.07 | decreased the average tumor volume | did not cause significant changes in body weight | decreased the average tumor volume and tumor weight |
| O=[N+]([O-])c1ccc(Nc2nc(-c3ccccc3)nc3ccccc23)cc1 [compound 10, N-(4-Nitrophenyl)-2-phenylquinazolin-4-amine] | 8.32 ± 2.06 | 12.2 ± 1.91 | 12.5 ± 2.83 | 15.7 ± 1.89 | 25.8 ± 2.2 | > 30 | – | – | – | – | – | – | – | – | – | – |
| O=C(/C=C/c1ccc2ccccc2c1)c1ccc(Nc2nc(-c3ccccc3)nc3ccccc23)cc1 [compound 19, (E)-3-(Naphthalen-2-yl)-1-(4-((2-phenylquinazolin-4-yl)amino)phenyl)prop-2-en-1-one] | 1.56 ± 0.92 | 1.96 ± 0.56 | 1.39 ± 0.25 | 2.55 ± 0.49 | 2.61 ± 0.59 | 19.8 ± 2.21 | 281 to 286 | – | – | – | – | – | – | – | – | – |
